Test results published in PubChem BioAssay AID2060622 (Molecular Pharmacology Branch, DTP, NCI, 2025).

Tested on: 242566-281-R-J2-PDC complex spheroid viability
Test: Anticancer human tumor 242566-281-R-J2-PDC patient-derived pancreatic carcinoma cell line growth inhibition [CLK]
Conditions: for IC50: curve of first compound; for viability, T/C: stronger effect = lower value; active means viability on the fitted dose curve at most 10% of control; inactive means the rest
How it was run: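 Patient-derived tumor cells grown as complex spheroids with HUVEC endothelial cells and mesenchymal stem cells, treated with drug combinations. Concentrations descend in half-log steps from near clinical Cmax, or from 10 microM if Cmax unknown.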

[1] = second compound 0.0316 µM, first compound 0.0316 µM
[2] = second compound 0.0316 µM, first compound 0.1 µM
[3] = second compound 0.0316 µM, first compound 0.316 µM
[4] = second compound 0.0316 µM, first compound 1 µM
[5] = second compound 0.0316 µM, first compound 3.16 µM
[6] = second compound 0.0316 µM, first compound 10 µM
[7] = second compound 0.1 µM, first compound 0.0316 µM
[8] = second compound 0.1 µM, first compound 0.1 µM
[9] = second compound 0.1 µM, first compound 0.316 µM
[10] = second compound 0.1 µM, first compound 1 µM
[11] = second compound 0.1 µM, first compound 3.16 µM
[12] = second compound 0.1 µM, first compound 10 µM
[13] = second compound 0.316 µM, first compound 0.0316 µM
[14] = second compound 0.316 µM, first compound 0.1 µM
[15] = second compound 0.316 µM, first compound 0.316 µM
[16] = second compound 0.316 µM, first compound 1 µM
[17] = second compound 0.316 µM, first compound 3.16 µM
[18] = second compound 0.316 µM, first compound 10 µM
[19] = second compound 1 µM, first compound 0.0316 µM
[20] = second compound 1 µM, first compound 0.1 µM
[21] = second compound 1 µM, first compound 0.316 µM
[22] = second compound 1 µM, first compound 1 µM
[23] = second compound 1 µM, first compound 3.16 µM
[24] = second compound 1 µM, first compound 10 µM
[25] = second compound 3.16 µM, first compound 0.0316 µM
[26] = second compound 3.16 µM, first compound 0.1 µM
[27] = second compound 3.16 µM, first compound 0.316 µM
[28] = second compound 3.16 µM, first compound 1 µM
[29] = second compound 3.16 µM, first compound 3.16 µM
[30] = second compound 3.16 µM, first compound 10 µM
[31] = second compound 10 µM, first compound 0.0316 µM
[32] = second compound 10 µM, first compound 0.1 µM
[33] = second compound 10 µM, first compound 0.316 µM
[34] = second compound 10 µM, first compound 1 µM
[35] = second compound 10 µM, first compound 3.16 µM
[36] = second compound 10 µM, first compound 10 µM
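Further: spheroids exposed to compounds for 7 days before readout.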
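Wherever viability, T/C is given: 100% = DMSO vehicle control wells.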

C=CC(=O)N1CCN(c2nc(=O)n(-c3c(C)ccnc3C(C)C)c3nc(-c4c(O)cccc4F)c(F)cc23)C(C)C1 (centres undefined) + CNC(=O)c1ccc(Nc2nc(OC3CCCC3)c3c(-c4ccc5nc(C)oc5c4)c[nH]c3n2)c(OC)c1
> 10 µM: IC50 (second compound 0.0316 µM) | IC50 (second compound 0.1 µM) | IC50 (second compound 0.316 µM) | IC50 (second compound 1 µM) | IC50 (second compound 3.16 µM) | IC50 (second compound 10 µM)
inactive: viability, T/C [1] 104% | viability, T/C [2] 94% | viability, T/C [3] 120% | viability, T/C [4] 128% | viability, T/C [5] 89% | viability, T/C [6] 73.9% | viability, T/C [7] 101% | viability, T/C [8] 115% | viability, T/C [9] 87.7% | viability, T/C [10] 104% | viability, T/C [11] 88.1% | viability, T/C [12] 70.9% | viability, T/C [13] 95.7% | viability, T/C [14] 92% | viability, T/C [15] 74.3% | viability, T/C [16] 87.1% | viability, T/C [17] 71.1% | viability, T/C [18] 67.3% | viability, T/C [19] 79.3% | viability, T/C [20] 68.1% | viability, T/C [21] 72.5% | viability, T/C [22] 69.6% | viability, T/C [23] 70.7% | viability, T/C [24] 57.2% | viability, T/C [25] 60.5% | viability, T/C [26] 52.6% | viability, T/C [27] 52.9% | viability, T/C [28] 56.4% | viability, T/C [29] 58.1% | viability, T/C [30] 54.8% | viability, T/C [31] 54.5% | viability, T/C [32] 53.6% | viability, T/C [33] 58.8% | viability, T/C [34] 53% | viability, T/C [35] 53.6% | viability, T/C [36] 51.8%

COC1C=CCC(C)C(C)S(=O)(=O)NC(=O)c2ccc3c(c2)N(CC2CCC21)CC1(CCCc2cc(Cl)ccc21)CO3 (centres undefined) + CNC(=O)c1ccc(Nc2nc(OC3CCCC3)c3c(-c4ccc5nc(C)oc5c4)c[nH]c3n2)c(OC)c1
6.17 µM: IC50 (second compound 0.1 µM)
0.139 µM: IC50 (second compound 1 µM)
0.404 µM: IC50 (second compound 0.316 µM)
< 0.0316 µM: IC50 (second compound 3.16 µM) | IC50 (second compound 10 µM)
5.24 µM: IC50 (second compound 0.0316 µM)
inactive: viability, T/C [1] 95.8% | viability, T/C [2] 91.9% | viability, T/C [3] 72% | viability, T/C [4] 84.9% | viability, T/C [5] 67.5% | viability, T/C [6] 29.1% | viability, T/C [7] 94.7% | viability, T/C [8] 74.8% | viability, T/C [9] 65.4% | viability, T/C [10] 84.3% | viability, T/C [11] 91.4% | viability, T/C [12] 26.8% | viability, T/C [13] 84.9% | viability, T/C [14] 64.7% | viability, T/C [15] 50.6% | viability, T/C [16] 42.3% | viability, T/C [17] 39.1% | viability, T/C [18] 25.9% | viability, T/C [19] 64.9% | viability, T/C [20] 55.3% | viability, T/C [21] 38.5% | viability, T/C [22] 29.1% | viability, T/C [23] 25.6% | viability, T/C [24] 19.6% | viability, T/C [25] 49.6% | viability, T/C [26] 40.1% | viability, T/C [27] 30.7% | viability, T/C [28] 20.8% | viability, T/C [29] 18.1% | viability, T/C [30] 14.2% | viability, T/C [31] 42.9% | viability, T/C [32] 41.2% | viability, T/C [33] 30.8% | viability, T/C [34] 18.3% | viability, T/C [35] 13.5% | viability, T/C [36] 12.1%
